From ChEMBL document CHEMBL4622944 (Bioorg Med Chem Lett, 2020)

What was measured:
Assay type in all cases: functional, cell-based
HCT-116 = assay: Antiproliferative activity against human HCT116 cells assessed as reduction in cell viability by MTT assay
A549 = assay: Antiproliferative activity against human A549 cells assessed as reduction in cell viability by MTT assay
PC-3 = assay: Antiproliferative activity against human PC3 cells assessed as reduction in cell viability by MTT assay

SMILES	IC50 (HCT-116)	IC50 (A549)	IC50 (PC-3)
Cc1ccc(/C=N/Nc2ncc3c(n2)n(C2CCCC2)c(=O)c(=O)n3C)cc1C	62.9 µM	30.2 µM	39 µM
Cn1c(=O)c(=O)n(C2CCCC2)c2nc(N/N=C/c3ccc(F)cc3F)ncc21	19.8 µM	18.3 µM	13.2 µM
Cn1c(=O)c(=O)n(C2CCCC2)c2nc(N/N=C/c3ccco3)ncc21	78.7 µM	> 100 µM	72.2 µM
COc1cc(/C=N/Nc2ncc3c(n2)n(C2CCCC2)c(=O)c(=O)n3C)cc(OC)c1OC	22.9 µM	18.3 µM	17.5 µM
Cn1c(=O)c(=O)n(C2CCCC2)c2nc(N/N=C/c3ccccc3F)ncc21	20.7 µM	31.2 µM	27.6 µM
Cn1c(=O)c(=O)n(C2CCCC2)c2nc(N/N=C/c3ccc(O)c(Br)c3)ncc21	17.7 µM	12.8 µM	11.6 µM
COc1cccc(/C=N/Nc2ncc3c(n2)n(C2CCCC2)c(=O)c(=O)n3C)c1	45.8 µM	27.4 µM	20.7 µM
Cn1c(=O)c(=O)n(C2CCCC2)c2nc(N/N=C/c3ccc(S(C)(=O)=O)cc3)ncc21	86.6 µM	84.5 µM	26.6 µM
Cn1c(=O)c(=O)n(C2CCCC2)c2nc(N/N=C/c3ccc(C(F)(F)F)cc3)ncc21	29 µM	40.6 µM	23.6 µM
Cn1c(=O)c(=O)n(C2CCCC2)c2nc(N/N=C/c3cccc(O)c3)ncc21	37.2 µM	> 100 µM	36.3 µM

Stronger by IC50 (HCT-116), values ahead:

IC50 (HCT-116)	IC50 (A549)	IC50 (PC-3)	SMILES
14 µM	9.86 µM	16.3 µM	Cn1c(=O)c(=O)n(C2CCCC2)c2nc(N/N=C/c3ccccc3Cl)ncc21
9.81 µM	6.89 µM	8.42 µM	Cn1c(=O)c(=O)n(C2CCCC2)c2nc(N/N=C/c3ccc(Cl)cc3)ncc21
7.92 µM	12 µM	13.9 µM	Cc1cc(C)c(/C=N/Nc2ncc3c(n2)n(C2CCCC2)c(=O)c(=O)n3C)c(C)c1
6.15 µM	12.9 µM	7.18 µM	Cn1c(=O)c(=O)n(C2CCCC2)c2nc(N/N=C/c3ccc(OC(F)(F)F)cc3)ncc21
